This is an account of results in PMC9413201, “Covalent Proteomimetic Inhibitor of the Bacterial FtsQB Divisome Complex” (Journal of the American Chemical Society, 2022).

The test deals with FtsQ(50–276) (Escherichia coli, UniProt P06136). Put plainly: LC/MS analysis of modified FtsQ(50–276). The settings on record: HPLC/MS, deconvolution; expected for reaction with 1 equiv ΔMW = 2122 g/mol; 37 °C, NH4HCO3 buffer pH 7.6. Type of test: biochemical, E. coli. The arrangement: pET16b FtsQ(50˗276), a His6 fusion; made in house; host or cells: Escherichia coli BL21 DE3. As to the method: 1.6 LC/MS-analysis of modified FtsQ(50˗276)
To determine the reactivity of 17fα, FtsQ(50˗276) was diluted to a concentration of 100 μM in 20 mM NH4HCO3 buffer (pH 7.6, 150 mM NaCl). The peptide 17fα was diluted to a concentration of 250 μM in the same buffer.
Equal volumes of both solutions were mixed and incubated at 37 °C for the given time period (1 h or 3 h). The reaction was quenched by 4-fold dilution in ACN/H2O (1:1) + 0.1 % TFA.
20 μL of the resulting solution were injected and analysed by analytical reverse-phase HPLC (1260 Infinity II, Agilent Technology; flow rate of 0.3 mL·min-1, A: water with 0.1% FA, B: 80% iPrOH, 10% ACN, 10% H2O with 0.1% FA; AdvanceBio RP-mAB C4 column, 2.1×50 mm, 3.5 µm particle size) using a 10 min gradient (20-80% B) coupled to a mass spectrometer (Infinity Lab LC/MSD XT, Agilent Technology) using API-ES (MSD signal settings: Polarity: Positive; scan mass range: 500-3000; Fragmentor 70). Analytical HPLC chromatograms at 210 nm and MS spectra, masses and m/z ratios are shown in the appendix – analytics part. […]
Morphology assays were executed to assess the physiological change of E.coli cells upon exposure to different peptides. All steps in this protocol were performed under sterile conditions. For each assay, 20 mL of fresh MOPS medium was prepared (40 mM MOPS, 4 mM tricine, 0.01 mM FeSO-4, 9.5 mM NH4Cl, 0.276 mM K2SO4, 0.5

Numbered stars: 1 amine (or outer) side, 2 acyl side, 3 side chain; on linkers, the order of the positions; unused ones are H or OH. Bridge positions count the residues as written; N and C are the ends. Square brackets hold non-standard residues; d marks the D form. Peptide text beside a SMILES is read from it. * marks the point of attachment. X1 = O=C([C@H](CCCCCC=[*:3])N[*:1])[*:2]; Nle = CCCC[C@H](N)C(=O)O; BrAc = O=C(CBr)*

Chain of FtsQ(50–276) (P06136 50-276): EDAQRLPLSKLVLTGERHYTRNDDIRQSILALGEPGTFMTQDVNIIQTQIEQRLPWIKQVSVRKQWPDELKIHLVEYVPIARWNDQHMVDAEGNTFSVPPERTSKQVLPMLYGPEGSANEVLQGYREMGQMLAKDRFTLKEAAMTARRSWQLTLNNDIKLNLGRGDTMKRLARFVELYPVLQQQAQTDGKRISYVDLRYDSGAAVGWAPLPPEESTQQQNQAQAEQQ

Regarding `CCCC[C@@H]1NC(=O)[C@H](CO)NC(=O)[C@H](CC(C)C)NC(=O)[C@H](CCC(=O)O)NC(=O)[C@H](CC(N)=O)NC(=O)[C@@H](NC(=O)[C@H](C)NC(C)=O)CCCCCC=CCCCCC[C@@H](C(=O)N[C@@H](CCCCNC(=O)CBr)C(=O)N[C@@H](Cc2ccccc2)C(=O)N[C@@H](Cc2ccc(O)cc2)C(=O)N[C@@H](CCCNC(=N)N)C(=O)N[C@@H](CC(C)C)C(N)=O)NC(=O)CNC(=O)[C@@H]2CCCN2C(=O)[C@H](CCCNC(=N)N)NC(=O)[C@H]([C@@H](C)O)NC1=O` [17fα] (Ac-A[X1]NELS[Nle]TRPG[X1]K(BrAc)FYRL-NH2; staple 2-12), the “ΔMW of FtsQ(50–276) after treatment (obtained mass difference)” value was found to be 2124 g/mol.
